The values that follow come from US7658943B2, “Oral pharmaceutical composition for soft capsules containing vinorelbine and method of treatment” (R.P. Scherer Technologies, LLC, priority 2002, dated 2010).

Series [1] can be described thus: Storage stability: impurity content by HPLC. The format is physicochemical. Conditions: 5° C.±3° C. The protocol:
The HPLC chromatographic method used included an assembly fitted with an automatic injector and variable wavelength UV detector set at 267 nm. The column was stainless steel with a length of 150 mm and diameter of 3.9 mm and filled with octadecylsilyl silica gel—300 Å—spherical, 5 μm. The mobile phase was carried out with sodium decanesulfonate (1.2217 g), phosphate buffer 0.05 M (pH=4.2) 380 ml, and methanol (620 ml), with a thermostatically-controlled column temperature of +40° C. and a mobile phase flow rate of 1 ml/min.
Each batch was stored over the analysis time at 5° C.±3° C.

For series [2] the following is noted: 5° C.±3° C., aqueous vinorelbine 10 mg/ml as base.
Procedure: In this experiment, pure powder form vinorelbine was compared to soft capsule encapsulated vinorelbine liquid fill composition of the invention (Formula 1.). Coloration was measured at 5° C.±3° C. by ultraviolet absorbance at 420 nm of aqueous vinorelbine at 10 mg/ml expressed as vinorelbine base. […] Mean variation was calculated as from the difference between the average of the results at the per given analysis time and the average of the results at the initial time (t0) for several batches (3 batches for the vinorelbine powder, 3 batches for the 20 mg soft capsules, 4 batches for the 30 mg soft capsules, 3 batches for the 40 mg soft capsules, 3 batches for the 80 mg soft capsules.)

Like-named read-outs stand apart in the source and are kept apart here.

In the case of `CCC1=C[C@@H]2CN(C1)Cc1c([nH]c3ccccc13)[C@@](C(=O)OC)(c1cc3c(cc1OC)N(C)[C@H]1[C@@](O)(C(=O)OC)[C@H](OC(C)=O)[C@]4(CC)C=CCN5CC[C@]31[C@@H]54)C2` [Vinorelbine (powder), 3′,4′-didehydro-4′-deoxy-C′-norvincaleucoblastine], the “Impurity content, max. variation (t0→analysis time)” value in series [1] (6 months) amounted to 0.21 Relative Area Percent; in series [1] (12 months), 0.44 Relative Area Percent; in series [1] (18 months), 0.85 Relative Area Percent; in series [1] (24 months) it was 1.32 Relative Area Percent. Further, the “Impurity content, mean variation (t0→analysis time)” value turned out to be 0.12 Relative Area Percent in series [1] (6 months), 0.39 Relative Area Percent in series [1] (12 months), 0.78 Relative Area Percent in series [1] (18 months) and 1.13 Relative Area Percent in series [1] (24 months). Further, the “Color evolution (absorbance at 420 nm), max. variation (t0→analysis time)” value is 0.012 in series [2] (6 months), 0.015 in series [2] (12 months), 0.025 in series [2] (18 months) and 0.041 in series [2] (24 months). Moreover, the “Color evolution (absorbance at 420 nm), mean variation (t0→analysis time)” value came to 0.006 in series [2] (6 months), 0.013 in series [2] (12 months), 0.017 in series [2] (18 months) and 0.029 in series [2] (24 months).
